From US6518290B1, “Substituted oxazoles and thiazoles derivatives as HPPAr alpha activators” (priority 1999, dated 2003) come the findings set out here.

The structures appear in SMILES notation.

Holding throughout (type): cell-based
One assay has as its target T1, human PPAR alpha (Homo sapiens, UniProt Q07869).
T1 construct: expressed in transfected cells; host or cells: CV-1 cells
T1 sequence (Q07869 239-466 limits assumed): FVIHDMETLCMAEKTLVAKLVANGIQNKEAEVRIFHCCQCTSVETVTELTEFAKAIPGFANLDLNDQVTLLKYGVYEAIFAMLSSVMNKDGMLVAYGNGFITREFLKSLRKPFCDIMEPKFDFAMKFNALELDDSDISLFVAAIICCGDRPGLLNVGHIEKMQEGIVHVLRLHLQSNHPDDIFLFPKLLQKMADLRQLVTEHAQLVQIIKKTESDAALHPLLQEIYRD
Briefly: PPAR transient transfection (transactivation) assay in CV-1 cells, hPPAR alpha. The conditions noted are these: PPAR LBD-GAL4 chimera, SPAP reporter, 24 h with compound, read-out: human αEC50. An excerpt: Compounds were screened for functional potency in transient transfection assays in CV-1 cells for their ability to activate the PPAR subtypes (transactivation assay). A previously established chimeric receptor system was utilized to allow comparison of the relative transcriptional activity of the receptor subtypes on the same target gene and to prevent endogenous receptor activation from complicating the interpretation of results. See, for example, Lehmann, J. M.; Moore, L. B.; Smith-Oliver, T. A.; Wilkison, W. O.; Willson, T. M.; Kliewer, S. A., An antidiabetic thiazolidinedione is a high affinity ligand for peroxisome proliferator-activated receptor γ (PPARγ), J. Biol. Chem., 1995, 270, 12953-6. The ligand binding domains for murine and human PPAR alpha, PPAR gamma, and PPAR delta were each fused to the yeast transcription factor GAL4 DNA binding domain. CV-1 cells were transiently transfected with expression vectors for the respective PPAR chimera along with a reporter construct containing five copies of the GAL4 DNA binding site driving expression of secreted placental alkaline phosphatase (SPAP) and β-galactosidase. After 16 h, the medium was exchanged to DME medium supplemented with 10% delipidated fetal calf serum and the test compound at the appropriate concentration. After an additional 24 h, cell extracts were prepared and assayed for alkaline phosphatase and β-galactosidase activity. […] Rosiglitazone (BRL 49653) was used as a positive control in the hPPAR gamma assay. The positive control in the hPPAR alpha assays was 2-(2-methyl-3-[3-{3-(4-cyclohexylamino)-[6-(4-fluorophenylpiperazin-1-yl)][1,3,5]triazin-2-ylamino}propyl]phenylthio)-2-methylpropionic acid. The positive control for PPAR delta assays was 2-{2-methyl-4-[({4-methyl-2-{trifluoromethyl)phenyl]-1,3-thiazol-5-yl}methyl)sulfanyl]phenoxy}acetic acid.

A further assay concerns the target T2, human PPAR gamma (Homo sapiens, UniProt P37231).
T2 construct: expressed in transfected cells; host or cells: CV-1 cells
T2 sequence (P37231 238-503 limits assumed): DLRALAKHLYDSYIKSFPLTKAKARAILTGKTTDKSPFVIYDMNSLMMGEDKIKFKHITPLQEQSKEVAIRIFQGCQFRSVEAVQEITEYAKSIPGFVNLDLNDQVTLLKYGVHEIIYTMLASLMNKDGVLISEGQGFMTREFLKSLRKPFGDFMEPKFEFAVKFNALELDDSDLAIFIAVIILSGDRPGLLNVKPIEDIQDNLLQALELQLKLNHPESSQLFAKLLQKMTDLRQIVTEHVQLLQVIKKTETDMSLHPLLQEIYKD
Put plainly: PPAR transient transfection (transactivation) assay in CV-1 cells, hPPAR gamma. The note with it: PPAR LBD-GAL4 chimera, SPAP reporter, 24 h with compound, read-out: human γEC50. From the text:
(§1) Compounds were screened for functional potency in transient transfection assays in CV-1 cells for their ability to activate the PPAR subtypes (transactivation assay). A previously established chimeric receptor system was utilized to allow comparison of the relative transcriptional activity of the receptor subtypes on the same target gene and to prevent endogenous receptor activation from complicating the interpretation of results. See, for example, Lehmann, J. M.; Moore, L. B.; Smith-Oliver, T. A.; Wilkison, W. O.; Willson, T. M.; Kliewer, S. A., An antidiabetic thiazolidinedione is a high affinity ligand for peroxisome proliferator-activated receptor γ (PPARγ), J. Biol. Chem., 1995, 270, 12953-6. The ligand binding domains for murine and human PPAR alpha, PPAR gamma, and PPAR delta were each fused to the yeast transcription factor GAL4 DNA binding domain. CV-1 cells were transiently transfected with expression vectors for the respective PPAR chimera along with a reporter construct containing five copies of the GAL4 DNA binding site driving expression of secreted placental alkaline phosphatase (SPAP) and β-galactosidase. After 16 h, the medium was exchanged to DME medium supplemented with 10% delipidated fetal calf serum and the test compound at the appropriate concentration. After an additional 24 h, cell extracts were prepared and assayed for alkaline phosphatase and β-galactosidase activity. Alkaline phosphatase activity was corrected for transfection efficiency using the β-galactosidase activity as an internal standard (see, for example, Kliewer, S. A., et. al. Cell 83, 813-819 (1995)). Rosiglitazone (BRL 49653) was used as a positive control in the hPPAR gamma assay. The positive control in the hPPAR alpha assays was 2-(2-methyl-3-[3-{3-(4-cyclohexylamino)-[6-(4-fluorophenylpiperazin-1-yl)][1,3,5]triazin-2-ylamino}propyl]phenylthio)-2-methylpropionic acid. The positive control for PPAR delta assays was 2-{2-methyl-4-[({4-methyl-2-{trifluoromethyl)phenyl]-1,3-thiazol-5-yl}methyl)sulfanyl]phenoxy}acetic acid.

The next assay deals with T3, human PPAR delta (Homo sapiens, UniProt Q03181).
T3 construct: expressed in transfected cells; host or cells: CV-1 cells
T3 sequence (Q03181 211-439 limits assumed): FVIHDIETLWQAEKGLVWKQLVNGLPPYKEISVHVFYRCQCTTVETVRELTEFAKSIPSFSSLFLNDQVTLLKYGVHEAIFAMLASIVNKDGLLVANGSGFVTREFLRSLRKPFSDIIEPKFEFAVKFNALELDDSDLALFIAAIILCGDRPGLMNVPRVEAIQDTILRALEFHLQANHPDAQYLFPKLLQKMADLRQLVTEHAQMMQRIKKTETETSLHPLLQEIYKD
Briefly: PPAR transient transfection (transactivation) assay in CV-1 cells, PPAR delta. The conditions noted are these: PPAR LBD-GAL4 chimera, SPAP reporter, 24 h with compound, read-out: human δEC50.
Excerpt: as §1

With `Cc1nc(-c2ccc(OC(F)(F)F)cc2)sc1C(=O)NCc1ccc(OC(C)(C)C(=O)O)cc1` [Example 35, 2-Methyl-2-[4-{[(4-methyl-2-[4-trifluoromethoxyphenyl]-thiazol-5-ylcarbonyl)amino]methyl}phenoxy]propionic Acid], the EC50 is 0.004 µM at human PPAR alpha, not below 10 µM on human PPAR gamma and 4.59 µM at human PPAR delta.

`CC(C)(Oc1ccc(CNC(=O)c2sc(-c3ccc(C(F)(F)F)cc3)nc2C(F)(F)F)cc1)C(=O)O` [Example 41, 2-Methyl-2-[4-{[(4-trifluoromethyl-2-[4-trifluoromethylphenyl]-thiazol-5-ylcarbonyl)amino]methyl}phenoxy]propionic Acid]: the values for the EC50 on human PPAR alpha, on human PPAR gamma and on human PPAR delta were 0.005 µM, 0.832 µM and not below 10 µM, respectively.

Turning to `Cc1nc(-c2ccc(C(F)(F)F)cc2)sc1C(=O)N(C)Cc1ccc(OC(C)(C)C(=O)O)cc1` [Example 6, N-Methyl-2-methyl-2-[4-{[(4-methyl-2-[4-trifluoromethylphenyl]-thiazol-5-ylcarbonyl)amino]methyl}phenoxy]propionic Acid], the EC50 on human PPAR alpha was 0.23 µM; at human PPAR gamma, not below 10 µM; on human PPAR delta, not below 10 µM.

As for `COc1cc(CNC(=O)c2sc(-c3ccc(C(F)(F)F)cc3)nc2C)ccc1OC(C)(C)C(=O)O` [Example 49, 2-Methyl-2-[2-methoxy-4-{[(4-methyl-2-[4-trifluoromethylphenyl]-thiazol-5-ylcarbonyl)amino]methyl}phenoxy]propionic Acid], the EC50 was 0.01 µM on human PPAR alpha, not below 10 µM on human PPAR gamma and 1 µM at human PPAR delta.

Take `COc1ccc(-c2nc(C)c(C(=O)NCc3ccc(OC(C)(C)C(=O)O)cc3)s2)cc1` [Example 37, 2-Methyl-2-[4-{[(4-methyl-2-[4-methoxyphenyl]-thiazol-5-ylcarbonyl)amino]methyl}phenoxy]propionic Acid]: the EC50 was 0.02 µM at human PPAR alpha, not below 10 µM on human PPAR gamma and not below 10 µM on human PPAR delta.

Consider `Cc1nc(-c2ccc(Br)cc2)sc1C(=O)NCc1ccc(OC(C)(C)C(=O)O)cc1` [Example 25, 2-Methyl-2-[4-{[(4-methyl-2-[4-bromophenyl]-thiazol-5-ylcarbonyl)amino]methyl}phenoxy]propionic Acid], for which the EC50 at human PPAR alpha is 0.01 µM; on human PPAR gamma it was not below 10 µM; on human PPAR delta it was 2.7 µM.

Turning to `C#Cc1ccc(-c2nc(C)c(C(=O)NCc3ccc(OC(C)(C)C(=O)O)cc3)s2)cc1` [Example 39, 2-Methyl-2-[4-{[(4-methyl-2-[4-acetylenylphenyl]-thiazol-5-ylcarbonyl)amino]methyl}phenoxy]propionic Acid], the EC50 at human PPAR alpha was 0.036 µM; on human PPAR gamma, not below 10 µM; on human PPAR delta, 2.48 µM.

Turning to `CCc1ccc(-c2nc(C)c(C(=O)NCc3ccc(OC(C)(C)C(=O)O)cc3)s2)cc1` [Example 27, 2-Methyl-2-[4-{[(4-methyl-2-[4-ethylphenyl]-thiazol-5-ylcarbonyl)amino]methyl}phenoxy]propionic Acid], the EC50 came to 0.002 µM on human PPAR alpha, 8.82 µM on human PPAR gamma and 4.08 µM on human PPAR delta.

In the case of `Cc1nc(-c2ccc(C(F)(F)F)cc2)sc1C(=O)NCc1ccc(OC(C)(C)C(=O)O)cc1` [Example 2, 2-Methyl-2-[4-{[(4-methyl-2-[4-trifluoromethylphenyl]-thiazol-5-ylcarbonyl)amino]methyl}phenoxy]propionic Acid], the values for the EC50 on human PPAR gamma and on human PPAR delta were not below 10 µM and 2.95 µM, respectively.

For `Cc1nc(-c2ccc(C(F)(F)F)cc2)sc1C(=O)NCCc1ccc(OC(C)(C)C(=O)O)cc1` [Example 10, 2-Methyl-2-[4-{[(4-methyl-2-[4-trifluoromethylphenyl]-thiazol-5-ylcarbonyl)amino]ethyl}phenoxy]propionic Acid], the EC50 was 0.108 µM on human PPAR alpha, not below 10 µM at human PPAR gamma and not below 10 µM at human PPAR delta.

Take `Cc1nc(-c2ccc(C(C)C)cc2)sc1C(=O)NCc1ccc(OC(C)(C)C(=O)O)cc1` [Example 15, 2-Methyl-2-[4-{[(4-methyl-2-[4-isopropylphenyl]-thiazol-5-ylcarbonyl)amino]methyl}phenoxy]propionic Acid]: the figures for the EC50 at human PPAR alpha, on human PPAR gamma and on human PPAR delta were 0.001 µM, 2.64 µM and 4.37 µM, respectively.

As to `Cc1nc(-c2ccc([N+](=O)[O-])cc2)sc1C(=O)NCc1ccc(OC(C)(C)C(=O)O)cc1` [Example 17, 2-Methyl-2-[4-{[(4-methyl-2-[4-nitrophenyl]-thiazol-5-ylcarbonyl)amino]methyl}phenoxy]propionic Acid], the EC50 on human PPAR alpha is 0.027 µM; on human PPAR gamma it was not below 10 µM; on human PPAR delta, not below 10 µM.

Turning to `CCOC(=O)C(C)(C)Oc1ccc(CNC(=O)c2sc(-c3ccc(C(F)(F)F)cc3)nc2C)cc1` [Example 1, 2-Methyl-2-[4-{[(4-methyl-2-[4-trifluoromethylphenyl]thiazol-5-ylcarbonyl)amino]methyl}phenoxy]propionic Acid Ethyl Ester], the EC50 is 0.017 µM at human PPAR alpha, not below 10 µM at human PPAR gamma and not below 10 µM on human PPAR delta.

For the compound `Cc1nc(-c2ccccc2)sc1C(=O)NCc1ccc(OC(C)(C)C(=O)O)cc1` [Example 29, 2-Methyl-2-[4-{[(4-methyl-2-phenylthiazol-5-ylcarbonyl)amino]methyl}phenoxy]propionic Acid], the EC50 was 0.122 µM on human PPAR alpha, not below 10 µM on human PPAR gamma and not below 10 µM at human PPAR delta.

Regarding `Cc1nc(-c2ccc(C(F)(F)F)cc2)oc1C(=O)NCc1ccc(OC(C)(C)C(=O)O)cc1` [Example 45, 2-Methyl-2-[4-{[(4-methyl-2-[4-trifluoromethylphenyl]-oxazol-5-ylcarbonyl)amino]methyl}phenoxy]propionic Acid], the EC50 at human PPAR alpha is 0.4 µM; at human PPAR gamma, not below 10 µM; on human PPAR delta it was 1.64 µM.

In the case of `Cc1nc(-c2ccc(C(F)(F)F)c(F)c2)sc1C(=O)NCc1ccc(OC(C)(C)C(=O)O)cc1` [Example 23, 2-Methyl-2-[4-{[(4-methyl-2-[3-fluoro-4-trifluoromethylphenyl]-thiazol-5-ylcarbonyl)amino]methyl}phenoxy]propionic Acid], the EC50 on human PPAR alpha is 0.007 µM; at human PPAR gamma, not below 10 µM; on human PPAR delta, 9.19 µM.
